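A five-concentration, 48-hour dose response in 96-well plates underlies each endpoint, interpolated linearly between surrounding concentrations. GI50 = concentration required for 50% inhibition of growth. Definition used: TGI = concentration required for complete inhibition of growth.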
Legend:
Assay in all cases: DTP human tumour cell line panel, 48 h
786-0 renal = test system: 786-0 renal
A498 renal = test system: A498 renal
A549 NSCLC = test system: A549 NSCLC
ACHN renal = test system: ACHN renal
BT-549 breast = test system: BT-549 breast
CAKI-1 renal = test system: CAKI-1 renal
CCRF-CEM leukemia = test system: CCRF-CEM leukemia
COLO 205 colon = test system: COLO 205 colon
DU-145 prostate = test system: DU-145 prostate
EKVX NSCLC = test system: EKVX NSCLC
HCC-2998 colon = test system: HCC-2998 colon
HCT-116 colon = test system: HCT-116 colon
HCT-15 colon = test system: HCT-15 colon
HL-60(TB) leukemia = test system: HL-60(TB) leukemia
HOP-62 NSCLC = test system: HOP-62 NSCLC
HOP-92 NSCLC = test system: HOP-92 NSCLC
HS 578T breast = test system: HS 578T breast
HT29 colon = test system: HT29 colon
IGROV1 ovarian = test system: IGROV1 ovarian
KM12 colon = test system: KM12 colon
LOX IMVI melanoma = test system: LOX IMVI melanoma
M14 melanoma = test system: M14 melanoma
MALME-3M melanoma = test system: MALME-3M melanoma
MCF7 breast = test system: MCF7 breast
MDA-MB-231 breast = test system: MDA-MB-231 breast
MDA-MB-435 = test system: MDA-MB-435
MOLT-4 leukemia = test system: MOLT-4 leukemia
NCI-H226 lung = test system: NCI-H226 lung
NCI-H23 lung = test system: NCI-H23 lung
NCI-H460 lung = test system: NCI-H460 lung
NCI/ADR-RES ovarian = test system: NCI/ADR-RES ovarian
OVCAR-3 ovarian = test system: OVCAR-3 ovarian
OVCAR-4 ovarian = test system: OVCAR-4 ovarian
OVCAR-5 ovarian = test system: OVCAR-5 ovarian
OVCAR-8 ovarian = test system: OVCAR-8 ovarian
PC-3 prostate = test system: PC-3 prostate
RPMI-8226 leukemia = test system: RPMI-8226 leukemia
RXF 393 renal = test system: RXF 393 renal
SF-268 CNS = test system: SF-268 CNS
SF-295 CNS = test system: SF-295 CNS
SF-539 CNS = test system: SF-539 CNS
SK-MEL-28 melanoma = test system: SK-MEL-28 melanoma
SK-MEL-5 melanoma = test system: SK-MEL-5 melanoma
SK-OV-3 ovarian = test system: SK-OV-3 ovarian
SN12C renal = test system: SN12C renal
SNB-19 CNS = test system: SNB-19 CNS
SNB-75 CNS = test system: SNB-75 CNS
SR leukemia = test system: SR leukemia
SW-620 colon = test system: SW-620 colon
T-47D breast = test system: T-47D breast
TK-10 renal = test system: TK-10 renal
U251 CNS = test system: U251 CNS
UACC-257 melanoma = test system: UACC-257 melanoma
UACC-62 melanoma = test system: UACC-62 melanoma
UO-31 renal = test system: UO-31 renal

COc1ccc(C(=O)N2N=C(c3ccc(Br)cc3)CC2c2cn(-c3ccccc3)nc2-c2ccccc2)cc1 (stereo not given)
GI50 (786-0 renal): 19 µM
TGI (786-0 renal): > 50 µM
GI50 (A498 renal): 6.82 µM
TGI (A498 renal): 28.5 µM
GI50 (A549 NSCLC): 4.28 µM
TGI (A549 NSCLC): > 50 µM
GI50 (ACHN renal): 18.9 µM
TGI (ACHN renal): > 50 µM
GI50 (BT-549 breast): 30.6 µM
TGI (BT-549 breast): > 50 µM
GI50 (CAKI-1 renal): 41.7 µM
TGI (CAKI-1 renal): > 50 µM
GI50 (CCRF-CEM leukemia): 9.86 µM
TGI (CCRF-CEM leukemia): 29.7 µM
GI50 (COLO 205 colon): > 50 µM
TGI (COLO 205 colon): > 50 µM
GI50 (DU-145 prostate): 25 µM
TGI (DU-145 prostate): > 50 µM
GI50 (EKVX NSCLC): > 50 µM
TGI (EKVX NSCLC): > 50 µM
GI50 (HCC-2998 colon): > 50 µM
TGI (HCC-2998 colon): > 50 µM
GI50 (HCT-116 colon): 2.87 µM
TGI (HCT-116 colon): > 50 µM
GI50 (HCT-15 colon): > 50 µM
TGI (HCT-15 colon): > 50 µM
GI50 (HL-60(TB) leukemia): 30.5 µM
TGI (HL-60(TB) leukemia): > 50 µM
GI50 (HOP-62 NSCLC): 9.05 µM
TGI (HOP-62 NSCLC): 44.5 µM
GI50 (HOP-92 NSCLC): 1.79 µM
TGI (HOP-92 NSCLC): 15.8 µM
GI50 (HS 578T breast): 20.5 µM
TGI (HS 578T breast): > 50 µM
GI50 (HT29 colon): > 50 µM
TGI (HT29 colon): > 50 µM
GI50 (IGROV1 ovarian): 19.4 µM
TGI (IGROV1 ovarian): > 50 µM
GI50 (KM12 colon): > 50 µM
TGI (KM12 colon): > 50 µM
GI50 (LOX IMVI melanoma): 42.1 µM
TGI (LOX IMVI melanoma): > 50 µM
GI50 (M14 melanoma): 15.7 µM
TGI (M14 melanoma): > 50 µM
GI50 (MALME-3M melanoma): > 50 µM
TGI (MALME-3M melanoma): > 50 µM
GI50 (MCF7 breast): > 50 µM
TGI (MCF7 breast): > 50 µM
GI50 (MDA-MB-231 breast): 5.47 µM
TGI (MDA-MB-231 breast): > 50 µM
GI50 (MDA-MB-435): > 50 µM
TGI (MDA-MB-435): > 50 µM
GI50 (MOLT-4 leukemia): 11.4 µM
TGI (MOLT-4 leukemia): 25.3 µM
GI50 (NCI-H226 lung): 18.3 µM
TGI (NCI-H226 lung): > 50 µM
GI50 (NCI-H23 lung): 20.8 µM
TGI (NCI-H23 lung): > 50 µM
GI50 (NCI-H460 lung): 15.3 µM
TGI (NCI-H460 lung): > 50 µM
GI50 (NCI/ADR-RES ovarian): 33 µM
TGI (NCI/ADR-RES ovarian): > 50 µM
GI50 (OVCAR-3 ovarian): 23.9 µM
TGI (OVCAR-3 ovarian): > 50 µM
GI50 (OVCAR-4 ovarian): 15.2 µM
TGI (OVCAR-4 ovarian): > 50 µM
GI50 (OVCAR-5 ovarian): > 50 µM
TGI (OVCAR-5 ovarian): > 50 µM
GI50 (OVCAR-8 ovarian): 8.55 µM
TGI (OVCAR-8 ovarian): > 50 µM
GI50 (PC-3 prostate): > 50 µM
TGI (PC-3 prostate): > 50 µM
GI50 (RPMI-8226 leukemia): > 50 µM
TGI (RPMI-8226 leukemia): > 50 µM
GI50 (RXF 393 renal): 6.28 µM
TGI (RXF 393 renal): > 50 µM
GI50 (SF-268 CNS): 34.8 µM
TGI (SF-268 CNS): > 50 µM
GI50 (SF-295 CNS): 17 µM
TGI (SF-295 CNS): > 50 µM
GI50 (SF-539 CNS): 39.5 µM
TGI (SF-539 CNS): > 50 µM
GI50 (SK-MEL-28 melanoma): > 50 µM
TGI (SK-MEL-28 melanoma): > 50 µM
GI50 (SK-MEL-5 melanoma): 15 µM
TGI (SK-MEL-5 melanoma): > 50 µM
GI50 (SK-OV-3 ovarian): 12.1 µM
TGI (SK-OV-3 ovarian): 36.3 µM
GI50 (SN12C renal): 47.4 µM
TGI (SN12C renal): > 50 µM
GI50 (SNB-19 CNS): 20.4 µM
TGI (SNB-19 CNS): > 50 µM
GI50 (SNB-75 CNS): 30.3 µM
TGI (SNB-75 CNS): > 50 µM
GI50 (SR leukemia): 7.78 µM
TGI (SR leukemia): 16.2 µM
GI50 (SW-620 colon): > 50 µM
TGI (SW-620 colon): > 50 µM
GI50 (T-47D breast): 13.4 µM
TGI (T-47D breast): > 50 µM
GI50 (TK-10 renal): 20.6 µM
TGI (TK-10 renal): > 50 µM
GI50 (U251 CNS): 13 µM
TGI (U251 CNS): > 50 µM
GI50 (UACC-257 melanoma): > 50 µM
TGI (UACC-257 melanoma): > 50 µM
GI50 (UACC-62 melanoma): 42.8 µM
TGI (UACC-62 melanoma): > 50 µM
GI50 (UO-31 renal): 42.6 µM
TGI (UO-31 renal): > 50 µM

Reference: PubChem BioAssay (NCI)
